According to patent US20260242416A1, “ANTIMICROBIAL PEPTIDES” (priority 2023, published 2026):
Read-outs that look alike come from different tables or passages of the source. Where a SMILES comes first, the peptide text is derived from it.

Key:
[1] = tested on: E. coli ATCC 25922, Salmonella Enteritidis, S. aureus ATCC 29213; assay: Broth microdilution, panel result (at least one / all strains), Example 2; type: cell-based; set-up: key to inhibitory activity (asterisk): *Indicates inhibitory activity; settings: for inhibitory activity (asterisk): Table 14, against at least one of E. coli ATCC 25922, Salmonella Enteritidis, S. aureus ATCC 29213
Description: The antimicrobial activity of the putative AMPs was determined by a broth microdilution assay as described by the Clinical and Laboratory Standards Institute, with the published adaptations for testing of cationic peptides. Escherichia coli 25922 and Staphylococcus aureus 29213 isolates were purchased from the American Type Culture Collection (ATCC; Manassas, VA, USA). A human clinical isolate of Salmonella enterica serovar Enteritidis was provided by the BC Centre for Disease Control. Bacteria from stocks stored at −80° C. were streaked onto nonselective Columbia blood agar with 5% sheep blood (Oxoid) and incubated overnight at 37° C. Next, 2-4 colonies were streaked onto a new agar plate to ensure uniform health of colonies used in the broth microdilution assay. Isolated colonies were suspended in MHB and the optical density was measured with a spectrophotometer to create an initial inoculum concentration of approximately 1×10^8 cfu/mL. The inoculum was diluted 1:250 to a final concentration of 2-8×10^5 cfu/mL, which was confirmed by performing a Total Viability Count (TVC). The TVC consisted of plating a 1:1000 dilution of the final inoculum on nonselective media and was also used to confirm the health and purity of the inoculum in each trial.
Lyophilized 80 μg peptide aliquots synthesized by GenScript (Piscataway, NJ, USA) were resuspended to 1.28 mg/mL with UltraPure water (Thermo Fisher Scientific, Waltham, MA, USA) and serially diluted in polypropylene 96-well microtiter plates (Greiner Bio-One #650261, Kremsmunster, Austria) from 128 down to 0.5 μg/mL. Two columns per plate were reserved for growth and sterility controls. Inoculum was added to the wells containing the peptide and the growth control. Plates were incubated for 20-24 h at 37° C. The minimum inhibitory concentration (MIC) was determined as the lowest peptide concentration where there was no visible bacterial growth.

E. coli ATCC 25922 = type: cell-based, Escherichia coli
How it was run: (§1)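 CLSI broth microdilution adapted for cationic peptides, in Mueller-Hinton broth, inoculum 2-8×10^5 cfu/mL. Peptides serially diluted from 128 to 0.5 μg/mL in polypropylene plates, incubated 20-24 h at 37° C. MIC = lowest concentration without visible growth.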

S. aureus ATCC 29213 = type: cell-based, Staphylococcus aureus
How it was run: as §1

[2] = tested on: Salmonella enterica serovar Enteritidis (human clinical isolate); type: cell-based
How it was run: as §1

[3] = serovar Enteritidis (human clinical isolate)

MIC (ug/mL) E. coli (E. coli ATCC 25922; ATCC 25922) | MIC (ug/mL) S. aureus (S. aureus ATCC 29213; ATCC 29213) | MIC (ug/mL) S. Enteritidis [2, 3] | Structure (SMILES) | further results
 |  |  | CC[C@H](C)[C@H](NC(=O)CN)C(=O)N[C@@H](CC(C)C)C(=O)N[C@@H](CCCNC(=N)N)C(=O)N[C@@H](CO)C(=O)N[C@@H](CC(C)C)C(=O)NCC(=O)N[C@@H](Cc1c[nH]c2ccccc12)C(=O)N[C@H](C(=O)N[C@@H](CCC(N)=O)C(=O)N[C@@H](CCSC)C(=O)N1CCC[C@H]1C(=O)N[C@@H](CCCNC(=N)N)C(=O)N[C@@H](CO)C(=O)N[C@@H](CCCNC(=N)N)C(=O)N[C@@H](CCCNC(=N)N)C(=O)N[C@@H](CCCNC(=N)N)C(=O)N[C@@H](Cc1c[nH]cn1)C(=O)N[C@@H](CCCNC(=N)N)C(=O)O)[C@@H](C)CC [AnFI2, GILRSLGWIQMPRSRRRHR] (H-GILRSLGWIQMPRSRRRHR-OH; N-terminus and C-terminus assumed) | inhibitory activity (asterisk) [1]: 721.* GILRSLGWIQMPRSRRRHR
 |  |  | CC[C@H](C)[C@H](NC(=O)CN)C(=O)N[C@@H](Cc1ccc(O)cc1)C(=O)N[C@H](C(=O)NCC(=O)N[C@@H](CCCNC(=N)N)C(=O)N[C@@H](CC(C)C)C(=O)N[C@@H](CC(C)C)C(=O)N1CCC[C@H]1C(=O)N[C@H](C(=O)N[C@@H](Cc1ccc(O)cc1)C(=O)N[C@H](C(=O)N1CCC[C@H]1C(=O)N[C@@H](CCC(N)=O)C(=O)N1CCC[C@H]1C(=O)N[C@@H](CCCNC(=N)N)C(=O)N1CCC[C@H]1C(=O)N1CCC[C@H]1C(=O)N[C@@H](Cc1c[nH]cn1)C(=O)N1CCC[C@H]1C(=O)N[C@@H](CCCNC(=N)N)C(=O)N[C@@H](CC(C)C)C(=O)N[C@@H](CCCNC(=N)N)C(=O)N[C@@H](CCCNC(=N)N)C(=O)O)[C@@H](C)CC)C(C)C)[C@@H](C)O [ApCe1] (H-GIYTGRLLPVYIPQPRPPHPRLRR-OH; N-terminus and C-terminus assumed) | inhibitory activity (asterisk) [1]: 695.* GIYTGRLLPVYIPQPRPPHPRLRR; spectrum of antimicrobial activity ([1]; panel of E. coli, Salmonella Enteritidis, S. aureus, up to 128 μg/mL): antimicrobial activity against Gram-negative bacterial species but not Gram-positives
>128/>128/>128 ug/mL | >128/>128/>128 ug/mL | >128/>128/>128 ug/mL | CC[C@H](C)[C@H](NC(=O)[C@H](CCCNC(=N)N)NC(=O)[C@@H](NC(=O)[C@@H]1CCCN1C(=O)[C@H](CCCNC(=N)N)NC(=O)[C@@H](NC(=O)[C@@H]1CCCN1C(=O)[C@H](CCC(N)=O)NC(=O)[C@H](CC(C)C)NC(=O)CNC(=O)[C@@H]1CCCN1C(=O)[C@@H]1CCCN1C(=O)[C@@H](NC(=O)[C@H](CCCCN)NC(=O)[C@H](Cc1c[nH]c2ccccc12)NC(=O)[C@H](C)NC(=O)[C@@H](NC(=O)[C@H](C)N)[C@@H](C)O)C(C)C)[C@@H](C)CC)[C@@H](C)CC)C(=O)N[C@@H](CCCNC(=N)N)C(=O)N1CCC[C@H]1C(=O)N[C@@H](CC(C)C)C(=O)N[C@@H](CS)C(=O)NCC(=O)N[C@@H](CC(N)=O)C(=O)N[C@@H](CC(=O)O)C(=O)N[C@@H](CCCCN)C(=O)N[C@@H](CO)C(=O)O [PeNi16] (H-ATAWKVPPGLQPIRPIRIRPLCGNDKS-OH; N-terminus and C-terminus assumed) | 
>128/>128/>128 ug/mL | >128/>128/>128 ug/mL | >128/>128/>128 ug/mL | N=C(N)NCCC[C@H](NC(=O)[C@H](CCCNC(=N)N)NC(=O)[C@H](CO)NC(=O)[C@H](CCCNC(=N)N)NC(=O)[C@H](Cc1c[nH]cn1)NC(=O)[C@H](CO)NC(=O)[C@H](Cc1c[nH]c2ccccc12)NC(=O)[C@H](CCCNC(=N)N)NC(=O)[C@@H]1CCCN1C(=O)[C@@H](N)CCCNC(=N)N)C(=O)O [PeNi18, RPRWSHRSRR] (H-RPRWSHRSRR-OH; N-terminus and C-terminus assumed) | 
>128/>128/>128 ug/mL | >128/>128/>128 ug/mL | >128/>128/>128 ug/mL | CC[C@H](C)[C@H](NC(=O)[C@H](C)NC(=O)[C@H](Cc1ccccc1)NC(=O)[C@H](C)NC(=O)[C@H](C)NC(=O)[C@@H](N)C(C)C)C(=O)N[C@H](C(=O)NCC(=O)N[C@@H](CS)C(=O)N[C@@H](CC(C)C)C(=O)N[C@@H](CS)C(=O)N[C@@H](CS)C(=O)N[C@@H](CCCNC(=N)N)C(=O)N[C@@H](CCCNC(=N)N)C(=O)N1CCC[C@H]1C(=O)N[C@@H](CCCNC(=N)N)C(=O)N[C@@H](CCCNC(=N)N)C(=O)O)[C@@H](C)CC [PoRo1, VAAFAIIGCLCCRRPRR] (H-VAAFAIIGCLCCRRPRR-OH; N-terminus and C-terminus assumed) | 
 |  |  | CC[C@H](C)[C@H](NC(=O)CNC(=O)[C@H](CO)NC(=O)[C@H](CC(C)C)NC(=O)[C@H](CC(C)C)NC(=O)CN)C(=O)N[C@@H](CC(C)C)C(=O)NCC(=O)N[C@@H](C)C(=O)NCC(=O)N[C@@H](CCCCN)C(=O)N[C@@H](CCCCN)C(=O)O [RaOm1, GLLSGILGAGKK] (H-GLLSGILGAGKK-OH; N-terminus and C-terminus assumed) | MIC (ug/mL) E. coli (E. coli ATCC 25922; Table 14, first value of the cell, three independent experiments, highest concentration tested 128): >128/>128/>128 ug/mL; MIC (ug/mL) S. aureus (S. aureus ATCC 29213; Table 14, third value of the cell, three independent experiments, highest concentration tested 128): >128/>128/>128 ug/mL; MIC (ug/mL) S. Enteritidis ([2]; Table 14, second value of the cell, three independent experiments, highest concentration tested 128): >128/>128/>128 ug/mL
>128/>128/>128 ug/mL | >128/>128/>128 ug/mL | >128/>128/>128 ug/mL | N=C(N)NCCC[C@H](NC(=O)[C@H](CCCNC(=N)N)NC(=O)CNC(=O)[C@H](Cc1ccccc1)NC(=O)[C@@H]1CCCN1C(=O)[C@H](Cc1ccccc1)NC(=O)[C@@H]1CCCN1C(=O)[C@@H](N)Cc1ccccc1)C(=O)O [RaSi2, FPFPFGRR] (H-FPFPFGRR-OH; N-terminus and C-terminus assumed) | 
>128/>128/>128 ug/mL | >128/>128/>128 ug/mL | >128/>128/>128 ug/mL | CC(C)C[C@H](NC(=O)CNC(=O)[C@H](Cc1ccccc1)NC(=O)[C@@H]1CCCN1C(=O)[C@@H](N)C(C)C)C(=O)N[C@@H](CCCCN)C(=O)N1CCC[C@H]1C(=O)N[C@@H](CCCNC(=N)N)C(=O)O [TeRu1, VPFGLKPR] (H-VPFGLKPR-OH; N-terminus and C-terminus assumed) | 
>128/>128/>128 ug/mL | >128/>128/>128 ug/mL | >128/>128/>128 ug/mL | CC(C)C[C@H](NC(=O)[C@H](Cc1ccccc1)NC(=O)[C@H](CC(C)C)NC(=O)[C@H](CCCCN)NC(=O)[C@H](Cc1c[nH]cn1)NC(=O)[C@@H](NC(=O)[C@H](Cc1ccccc1)NC(=O)[C@H](CO)NC(=O)[C@H](CC(C)C)NC(=O)[C@@H](NC(=O)[C@H](C)N)C(C)C)C(C)C)C(=O)N[C@@H](CC(N)=O)C(=O)N[C@@H](Cc1ccccc1)C(=O)N[C@@H](CC(C)C)C(=O)N[C@@H](Cc1c[nH]cn1)C(=O)N[C@H](C(=O)N[C@@H](CC(=O)O)C(=O)N[C@H](C(=O)N[C@@H](CO)C(=O)N[C@@H](CCCCN)C(=O)NCC(=O)N[C@@H](CCCCN)C(=O)N[C@@H](CS)C(=O)N[C@@H](CCCNC(=N)N)C(=O)N[C@@H](C)C(=O)N[C@H](C(=O)N[C@@H](CC(C)C)C(=O)N[C@@H](CCC(N)=O)C(=O)O)[C@@H](C)O)[C@@H](C)O)C(C)C [TeRu3] (H-AVLSFVHKLFLNFLHVDTSKGKCRATLQ-OH; N-terminus and C-terminus assumed) | 
>128/>128/>128 ug/mL | >128/>128/>128 ug/mL | >128/>128/>128 ug/mL | CC[C@H](C)[C@H](NC(=O)[C@@H](N)Cc1ccccc1)C(=O)N[C@@H](CC(C)C)C(=O)N[C@@H](Cc1c[nH]cn1)C(=O)N[C@@H](C)C(=O)N[C@@H](CCCCN)C(=O)N[C@@H](CCCCN)C(=O)N[C@H](C(=O)N[C@@H](CCCNC(=N)N)C(=O)N[C@@H](CO)C(=O)N[C@@H](C)C(=O)N[C@@H](CCCCN)C(=O)O)[C@@H](C)O [VeSi1, FILHAKKTRSAK] (H-FILHAKKTRSAK-OH; N-terminus and C-terminus assumed) | 
